Values of other authors in US10543230B2, “Redox signaling gel formulation” (RDG Holdings, Inc., priority 2013, dated 2020).

Details: pH around 7.0, room temperature

SMILES | half-life
O=[O+][O-] [dissolved ozone (O3), ozone] | about 20 min
[O]O [superoxide free radicals (O2*-), superoxide] | 10's of milliseconds
